{"source": "the SangsterLogP compilation", "data": [{"smiles": "O=C(c1ccccc1)c1ccc(O)cc1", "values": [{"measurement": "logP", "result": 2.91}]}, {"smiles": "O=C1CCC(=O)N1c1cc(Cl)cc(Cl)c1", "values": [{"measurement": "logP", "result": 1.88}]}, {"smiles": "O=C1CCC(=O)N1c1cc(C(F)(F)F)cc(C(F)(F)F)c1", "values": [{"measurement": "logP", "result": 2.25}]}, {"smiles": "Oc1cccc(C(F)(F)F)c1", "values": [{"measurement": "logP", "result": 2.61}]}, {"smiles": "N#Cc1ccc(C(=O)O)cc1", "values": [{"measurement": "logP", "result": 1.55}]}, {"smiles": "O=C(O)c1cccc(Br)c1", "values": [{"measurement": "logP", "result": 2.83}]}, {"smiles": "CCCc1cccc(N2C(=O)CCC2=O)c1", "values": [{"measurement": "logP", "result": 1.52}]}, {"smiles": "O=C(O)c1cccc(F)c1", "values": [{"measurement": "logP", "result": 2.05}]}, {"smiles": "Cc1ccc(C(=O)O)cc1", "values": [{"measurement": "logP", "result": 2.43}]}, {"smiles": "O=C1CC(c2cccc(C(F)(F)F)c2)C(=O)N1", "note": "(stereo not drawn)", "values": [{"measurement": "logP", "result": 1.35}]}, {"smiles": "CC(=O)Oc1cccc(O)c1", "values": [{"measurement": "logP", "result": 1.26}]}, {"smiles": "O=C1CCC(=O)N1c1cc(Br)cc(Br)c1", "values": [{"measurement": "logP", "result": 2.12}]}, {"smiles": "O=C1CCC(=O)N1c1cc(Cl)cc(Cl)c1Cl", "values": [{"measurement": "logP", "result": 2.44}]}, {"smiles": "O=C1CCC(=O)N1c1cc(Cl)c(Cl)c(Cl)c1", "values": [{"measurement": "logP", "result": 2.92}]}, {"smiles": "Cc1cc(C)cc(N2C(=O)CCC2=O)c1", "values": [{"measurement": "logP", "result": 1.16}]}, {"smiles": "O=C(O)c1ccccc1Nc1cccc([N+](=O)[O-])c1", "values": [{"measurement": "logP", "result": 4.42}]}, {"smiles": "Cc1cccc(Nc2ccccc2C(=O)O)c1", "values": [{"measurement": "logP", "result": 4.74}]}, {"smiles": "O=C1CCC(=O)N1c1ccc(C(F)(F)F)cc1", "values": [{"measurement": "logP", "result": 1.3}]}]}
